# Laboratory results from patent publication US9932617B2, “Ketose 3-epimerase produced by arthrobacter globiformis” (priority 2013, dated 2018).
# Like-named read-outs stand apart in the source and are kept apart here. Marks after values point to notes of the source that are not given here.
# Legend:
# Format in all cases: biochemical, Arthrobacter globiformis M30
# ketose 3-epimerase [1] = molecular target: T1, ketose 3-epimerase (Arthrobacter globiformis, UniProt A0A1L7NQ96); assay: Effects of metal ions on EDTA treated purified enzyme; settings: for Relative activity (%): 1 mM metal ion, D-psicose substrate, EDTA treated enzyme, activity without metal ions taken as 100; for metal ion activation: purified enzyme
# Description: The enzyme was examined for metal ion requirement. The purified enzyme was dialyzed for 2 hours against 10 mM Tris-HCl containing 1 mM EDTA (pH 7.5). The enzyme was further dialyzed against an EDTA-free 10 mM Tris-HCl buffer (pH 7.5) for a whole day and night to obtain an EDTA treated enzyme. This enzyme was used to measure the effect of metal ions on enzyme activity, using 1 mM of various metal ions, and D-psicose as the substrate. The results are presented in Table 13, in which the activity with addition of each type of metal ions is shown as the relative value with respect to the activity of the enzyme without metal ions which is taken as 100.
# ketose 3-epimerase [2] = molecular target: T1, ketose 3-epimerase
# ketose 3-epimerase [3] = molecular target: T1, ketose 3-epimerase; assay: D-PE substrate specificity, enzyme before purification (crude enzyme); settings: 0.2 M substrate, 55° C., 30 min, Tris buffer pH 7.0, D-psicose epimerization activity taken as 100
# Description: A reaction was allowed under the reaction conditions below. After quenching the reaction by boiling, the reaction liquid was desalted with an ion-exchange resin, and filtered to prepare an HPLC sample. The sample was analyzed by chromatography using CK08EC (Mitsubishi Chemical Corporation) in an HPLC system (Tosoh). Each product sugar was determined by calculations from the peak area values of the chromatogram.
# Eight hexose (ketoses) were used to examine the substrate specificity of the present enzyme before purification. An enzyme reaction composition (Table 4) containing each substrate (0.2 M, 350 μl) and an enzyme liquid (350 μl; Tris buffer pH 7.0) was allowed to react at 55° C. for 30 min, and the ketose epimerized and produced from each sugar was analyzed by HPLC. The results are presented as relative activity for each ketose relative to the D-psicose epimerization activity which is taken as 100, as follows. Table 5 presents relative activity values for D-fructose, D-psicose, D-sorbose, D-tagatose, L-fructose, L-psicose, L-sorbose, […] L-tagatose substrates. The activity was the highest for D-psicose, and the second highest for D-fructose. The substrate specificity can be said as characteristic of the D-psicose 3 epimerase (DPE), not other free ketose 3 epimerases, and was clearly different from the specificity of the D-tagatose3-epimerase (DTE) of Pseudomonas cichorii.
# ketose 3-epimerase [4] = molecular target: T1, ketose 3-epimerase; assay: Substrate specificity of purified enzyme for all ketohexoses; settings: 400 mM substrate, 20 mM MgCl2, 70° C. (120 min for D-sorbose and L-fructose, 20 min others), D-psicose taken as 100
# Description: The reactivity of the present enzyme was examined with respect to the all ketohexoses. The enzyme activity was tabulated as the relative activity with respect to the activity for D-psicose which is taken as 100. The present enzyme had activity for the all ketohexoses, and the activity was the highest for D-psicose. […] The initial velocity was determined by allowing a reaction at 70° C. for 120 min for D-sorbose and L-fructose, and 70° C. for 20 min for the other substrates.
# ketose 3-epimerase [5] = molecular target: T1, ketose 3-epimerase; assay: Km and Vmax of the present enzyme; settings: 30° C., in the presence of Mg^2+ ions
# Description: The Km and Vmax of the present enzyme for D-psicose and D-fructose were measured. The measurement was made by measuring enzyme activity at 30° C. in the presence of Mg^2+ ions.
# [6] = crude enzyme dialyzed against EDTA, D-fructose substrate, pH 7.0, 55° C., 30 min
# T1 sequence (A0A1L7NQ96 whole entry): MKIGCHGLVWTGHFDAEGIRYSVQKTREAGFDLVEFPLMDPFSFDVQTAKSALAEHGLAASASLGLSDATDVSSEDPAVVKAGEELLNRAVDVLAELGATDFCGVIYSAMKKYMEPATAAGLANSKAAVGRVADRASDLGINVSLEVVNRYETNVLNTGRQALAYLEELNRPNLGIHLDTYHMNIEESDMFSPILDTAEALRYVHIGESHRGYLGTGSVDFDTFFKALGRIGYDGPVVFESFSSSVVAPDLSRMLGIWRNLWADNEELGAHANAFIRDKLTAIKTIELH
Compound,Relative activity (%) (ketose 3-epimerase [1]),Relative activity (%) (ketose 3-epimerase [3]),Relative activity (%) (ketose 3-epimerase [4]),further results
"[Ca+2] [Ca^2+, calcium]",110,–,–,metal ion activation (ketose 3-epimerase [1]): activatable
[Cl-].[Cl-].[Co+2] [CoCl2],–,–,–,metal ion activation (effect of metal salt on enzyme activity) (ketose 3-epimerase [2]; pH 7): increased
"[Co+2] [Co^2+, divalent cobalt ions]",130,–,–,metal ion activation (ketose 3-epimerase [1]): activatable; metal ion activation (effect of metal salt on enzyme activity) (ketose 3-epimerase [2]; [6]): activatable
[Cu+2] [Cu^2+],0,–,–,–
O=C(CO)[C@@H](O)[C@H](O)[C@H](O)CO [D-fructose],–,58.14%,43.8,Km (ketose 3-epimerase [5]): 31.5 mM; Vmax (ketose 3-epimerase [5]): 68.5 U/mg
O=C(CO)[C@H](O)[C@H](O)[C@H](O)CO [D-psicose],–,100* %,100,Km (ketose 3-epimerase [5]): 30.1 mM; Vmax (ketose 3-epimerase [5]): 168 U/mg
O=C(CO)[C@H](O)[C@@H](O)[C@H](O)CO [D-sorbose],–,1.25%,1.13,–
O=C(CO)[C@@H](O)[C@@H](O)[C@H](O)CO [D-tagatose],–,5.42%,18.3,–
[Fe+2] [Fe^2+],32,–,–,–
O=C(CO)[C@H](O)[C@@H](O)[C@@H](O)CO [L-fructose],–,12%,0.97,–
O=C(CO)[C@@H](O)[C@@H](O)[C@@H](O)CO [L-psicose],–,12%,21.2,–
O=C(CO)[C@@H](O)[C@H](O)[C@@H](O)CO [L-sorbose],–,8%,16.6,–
O=C(CO)[C@H](O)[C@H](O)[C@@H](O)CO [L-tagatose],–,12.5%,44.0,–
"[Mg+2] [Mg^2+, magnesium ions]",150,–,–,metal ion activation (ketose 3-epimerase [1]): activatable
"[Mn+2] [Mn^2+, divalent manganese ions]",137,–,–,metal ion activation (ketose 3-epimerase [1]): activatable; metal ion activation (effect of metal salt on enzyme activity) (ketose 3-epimerase [2]; [6]): activatable
[Na+] [Na^+],120,–,–,–
[Ni+2] [Ni^2+],87,–,–,–
[Zn+2] [Zn^2+],0,–,–,–
manganese chloride [MnCl2],–,–,–,metal ion activation (effect of metal salt on enzyme activity) (ketose 3-epimerase [2]; [6]): increased
